According to patent US20110003868A1, “TREATMENT OF A NEUROPATHY WITH RAPID RELEASE AMINOPYRIDINE” (The UAB Research Foundation, priority 2003, published 2011):

What was measured:
subjects with GBS = test: Phase II double-blind, placebo controlled, crossover study; motor strength on 0-5 ordinal scale; assay type: in vivo, human patients; details: on average, fast release 4-AP 10 mg three times daily, oral capsule
Excerpt: This is a Phase II double-blind, placebo controlled, crossover, dose-escalating study in subjects with […]. An initial trial of ten patients is randomized to one of the two treatment sequences (A or B) as shown below. The study population consists of subjects with GBS injury whose neurological status has been stable for at least eighteen months. Ten subjects are enrolled. Variables to be Collected: The measures of neurological status reported for this study are: • Motor strength was rated on the traditional 0-5 ordinal scale: • 0—absent motor strength • 1—trace motor strength • 2—can move the specified joint but only with gravity eliminated • 3—can move the joint against gravity but not against any opposing force • 4—can move the joint against opposing force but the strength is not normal for the person or symmetrical • 5—normal motor strength This scale is employed to measure the following motor strength for each of these joint motions on both the right and the left sides: hip flexion, hip adduction, hip abduction, knee flexion, knee extension, ankle dorsiflexion, ankle plantar flexion, shoulder abduction, elbow extension, elbow flexion, wrist flexion, and wrist extension. 4-AP is compounded in a #1 quick dissolution capsule containing 5 mg 4-AP and 235 mg lactose. […]

central nervous system = details: has been reported, cited from earlier work

Row | Compound | Upper extremity strength increase relative to placebo (subjects with GBS) | Lower extremity strength increase relative to placebo (subjects with GBS; hip abduction, hip adduction, hip flexion, knee flexion, ankle dorsiflexion and plantar flexion) | Toxicity (central nervous system; compared with 4-AP or 2,3-DAP) | Central nervous system stimulation (central nervous system; compared with 4-AP)
1 | Nc1ccncc1 [4-AP, 4-aminopyridine] | 15% | 15% |  | 
2 | Nc1ccnc(N)c1 [2,4-DAP, 2,4-diaminopyridine] |  |  | less toxicity than either 4-AP or 2,3-DAP | less central nervous system stimulation than 4-AP
